Measurements from PMC7038240 (Antimicrobial Agents and Chemotherapy, 2020).
Read-outs that look alike come from different tables or passages of the source.

Key:
[1] = system: P. aeruginosa clinical isolates; assay: microbe, parasite or virus in culture; type: cell-based, Pseudomonas aeruginosa
Description: (§1) The antibacterial activity of the cephalosporins alone was included to ascertain the level of potentiation by the partnered BLI. BLIs were tested at a fixed concentration of 4 μg/ml in all combinations except cefepime-tazobactam, where tazobactam was fixed at a concentration of 8 μg/ml ([38]).
(§2) The in vitro antibacterial activity of the β-lactams alone or in combination with the BLIs was determined in cation-adjusted Mueller-Hinton broth (CAMHB) microdilution assays according to CLSI recommendations ([51]). […] The inocula for the broth microdilution assays were prepared by the broth culture method ([51]).

[2] = system: Enterobacterales clinical isolates; assay: MIC distributions in panels of clinical isolates (MIC50, MIC90, % susceptible); type: cell-based
Description: as §1, §2

E. cloacae = assay: microbe, parasite or virus in culture; type: cell-based
Description: as §1, §2

[3] = system: E. coli DH5α producing individual β-lactamases; assay: Broth microdilution MIC in engineered strains (BLI fixed at 4 μg/ml); type: cell-based, Escherichia coli
Description: The spectrum of antibacterial activity of cefepime-taniborbactam and the breadth of inhibitory activity of this next-generation cyclic boronate BLI were assessed in 34 engineered E. coli strains each overproducing an individual β-lactamase and directly compared to those of the clinically approved agent ceftazidime-avibactam. In this manner, the antibacterial activity of the BL-BLI combinations relative to that of the partnered cephalosporins alone provided a quantitative measure of β-lactam potentiation that directly reflects the levels of inhibition of β-lactamase function achieved by addition of BLI. The BLI concentration was fixed at 4 μg/ml, as described in Materials and Methods.
The isogenic strains were used to establish a spectrum of inhibitory activity against 34 β-lactamases that were engineered into E. coli DH5α cells carrying chromosomal AmpC (ESC-1), a non-ESBL enzyme unable to hydrolyze these third- or fourth-generation cephalosporins. […]. The DNA fragments containing the promoter, the signal sequence, and each β-lactamase-coding gene were synthesized and cloned into pTwist Chlor High Copy in DH5α at Twist Bioscience. The individual expression plasmids along with their GenBank accession numbers are listed in Table S2 in the supplemental material and below. The protein sequences of β-lactamases were obtained from the Beta-Lactamase DataBase (www.bldb.eu) ([47]). Expression of the β-lactamases was confirmed by verifying decreased susceptibility to example test antibiotics that are known substrates of the enzymes. E. coli DH5α carrying pTU501, which expressed only the TEM-1 signal sequence from the bla promoter, was used as a control. The plasmid sequences are available through GenBank (Table S2).
The in vitro antibacterial activity of the β-lactams alone or in combination with the BLIs was determined in cation-adjusted Mueller-Hinton broth (CAMHB) microdilution assays according to CLSI recommendations ([51]). […]. The inocula for the broth microdilution assays were prepared by the broth culture method ([51]). […]

[4] = system: cefepime-nonsusceptible Enterobacterales isolates; set-up: method as in earlier work; conditions: taniborbactam fixed at 4 μg/ml in combination; cited from earlier work
[5] = Wild-type, basal level Class C and OprD downregulation with RND efflux upregulation (n=14)
[6] = Enterobacter cloacae, strain 20, p99 AmpC/CTX-M-27/SHV-12/ACT-2/TEM-135, read-out: MIC
[7] = Enterobacter cloacae, strain 116723, p99 AmpC/TEM-1/CTX-M-3, read-out: MIC
[8] = Enterobacter cloacae, strain 138212, p99 AmpC/SHV-71/TEM-1, read-out: MIC
[9] = Enterobacter cloacae, strain 874381, CTX-M-15, read-out: MIC
[10] = Enterobacter cloacae, strain 875134, TEM-1/CTX-M-3/DHA-1, read-out: MIC
[11] = Enterobacter cloacae, strain 891849, TEM-1, read-out: MIC
[12] = Enterobacter cloacae, strain 920937, VIM-1, read-out: MIC
[13] = Enterobacter cloacae, strain 937223, SHV-12/CTX-M-9/ACT-7, read-out: MIC
[14] = Enterobacter cloacae, strain 938772, TEM-OSBL/CTX-M-15/ACT-30, read-out: MIC
[15] = Enterobacter cloacae, strain 976004, OXA-48, read-out: MIC
[16] = Enterobacter cloacae, strain 1249072, TEM-OSBL(b)/VIM-1, read-out: MIC
[17] = Enterobacter cloacae, strain 1365477, TEM-OSBL(b)/VIM-1, read-out: MIC
[18] = Escherichia coli, ACT-17 (class C)
[19] = Escherichia coli, ACT-C189 (P99 AmpC) (class C)
[20] = Escherichia coli, CMY-2 (class C)
[21] = Escherichia coli, CTX-M-2 (class A)
[22] = Escherichia coli, CTX-M-15 (class A)
[23] = Escherichia coli, GES-5 (class A)
[24] = Escherichia coli, GIM-1 (class B)
[25] = Escherichia coli, IMP-1 (class B)
[26] = Escherichia coli, KPC-2 (class A)
[27] = Escherichia coli, KPC-3(A177E/D179Y) (class A)
[28] = Escherichia coli, KPC-3(D179Y) (class A)
[29] = Escherichia coli, KPC-3(D179Y/T243M) (class A)
[30] = Escherichia coli, KPC-3(T243A) (class A)
[31] = Escherichia coli, KPC-3(V240G) (class A)
[32] = Escherichia coli, KPC-3 (class A)
[33] = Escherichia coli, NDM-1 (class B)
[34] = Escherichia coli, NDM-5 (class B)
[35] = Escherichia coli, NDM-7 (class B)
[36] = Escherichia coli, OXA-48 (class D)
[37] = Escherichia coli, OXA-162 (class D)
[38] = Escherichia coli, OXA-163 (class D)
[39] = Escherichia coli, OXA-181 (class D)
[40] = Escherichia coli, OXA-232 (class D)
[41] = Escherichia coli, PER-1 (class A)
[42] = Escherichia coli, PER-2 (class A)
[43] = Escherichia coli, SHV-5 (class A)
[44] = Escherichia coli, SPM-1 (class B)
[45] = Escherichia coli, TEM-10 (class A)
[46] = Escherichia coli, TEM-24 (class A)
[47] = Escherichia coli, TEM-72 (class A)
[48] = Escherichia coli, VEB-9 (class A)
[49] = Escherichia coli, VIM-1 (class B)
[50] = Escherichia coli, VIM-2 (class B)
[51] = Escherichia coli, VIM-4 (class B)
[52] = Escherichia coli, Vector control

Compound: CC(C)(O/N=C(\C(=O)N[C@@H]1C(=O)N2C(C(=O)[O-])=C(C[n+]3ccccc3)CS[C@H]12)c1csc(N)n1)C(=O)O [CAZ]
- % Susceptible isolates [1]: 0%
- % Susceptible isolates ([1]; PDC variants (n = 10)): 0%
- % Susceptible isolates [1, 5]: 35.7%
- % Susceptible isolates ([2]; ESBL (n = 20)): 15%
- % Susceptible isolates ([2]; KPC (n = 20)): 0%
- % Susceptible isolates ([2]; MBL (n = 20)): 0%
- % Susceptible isolates ([2]; Mixed Class A and C (n = 22)): 9.1%
- % Susceptible isolates ([2]; OXA-48/48-like (n = 20)): 15%
- MIC (E. cloacae): 64 µg/mL
- MIC (E. cloacae; [6]): ≥ 256 µg/mL
- MIC (E. cloacae; [7]): 128 µg/mL
- MIC (E. cloacae; [8]): 128 µg/mL
- MIC (E. cloacae; [9]): ≥ 256 µg/mL
- MIC (E. cloacae; [10]): 64 µg/mL
- MIC (E. cloacae; [11]): 128 µg/mL
- MIC (E. cloacae; [12]): ≥ 256 µg/mL
- MIC (E. cloacae; [13]): ≥ 256 µg/mL
- MIC (E. cloacae; [14]): 128 µg/mL
- MIC (E. cloacae; [15]): 128 µg/mL
- MIC (E. cloacae; [16]): ≥ 256 µg/mL
- MIC (E. cloacae; [17]): ≥ 256 µg/mL
- MIC [3, 18]: 8 µg/mL
- MIC [3, 19]: 256 µg/mL
- MIC [3, 20]: 512 µg/mL
- MIC [3, 21]: 32 µg/mL
- MIC [3, 22]: 128 µg/mL
- MIC [3, 23]: 64 µg/mL
- MIC [3, 24]: > 128 µg/mL
- MIC [3, 25]: 1020 µg/mL
- MIC [3, 26]: 64 µg/mL
- MIC [3, 27]: 1020 µg/mL
- MIC [3, 28]: 1020 µg/mL
- MIC [3, 29]: 1020 µg/mL
- MIC [3, 30]: 256 µg/mL
- MIC [3, 31]: 1020 µg/mL
- MIC [3, 32]: 512 µg/mL
- MIC [3, 33]: 1020 µg/mL
- MIC [3, 34]: > 1020 µg/mL
- MIC [3, 35]: > 1020 µg/mL
- MIC [3, 36]: 1 µg/mL
- MIC [3, 37]: 2 µg/mL
- MIC [3, 38]: 256 µg/mL
- MIC [3, 39]: 1 µg/mL
- MIC [3, 40]: 1 µg/mL
- MIC [3, 41]: 1020 µg/mL
- MIC [3, 42]: 1020 µg/mL
- MIC [3, 43]: 1020 µg/mL
- MIC [3, 44]: 1020 µg/mL
- MIC [3, 45]: 1020 µg/mL
- MIC [3, 46]: 1020 µg/mL
- MIC [3, 47]: 1020 µg/mL
- MIC [3, 48]: 1020 µg/mL
- MIC [3, 49]: 1020 µg/mL
- MIC [3, 50]: 128 µg/mL
- MIC [3, 51]: 256 µg/mL
- MIC [3, 52]: 0.25 µg/mL
- MIC ([3]; Vector control): 0.5 µg/mL

Compound: CO/N=C(\C(=O)N[C@@H]1C(=O)N2C(C(=O)[O-])=C(C[N+]3(C)CCCC3)CS[C@H]12)c1csc(N)n1 [FEP]
- MIC90 [4]: > 128 µg/mL
- MIC [3, 18]: 4 µg/mL
- MIC [3, 19]: 8 µg/mL
- MIC [3, 20]: 2 µg/mL
- MIC [3, 21]: 128 µg/mL
- MIC [3, 22]: 128 µg/mL
- MIC [3, 23]: 4 µg/mL
- MIC [3, 24]: 4 µg/mL
- MIC [3, 25]: 64 µg/mL
- MIC [3, 26]: 64 µg/mL
- MIC [3, 27]: 16 µg/mL
- MIC [3, 28]: 32 µg/mL
- MIC [3, 29]: 16 µg/mL
- MIC [3, 30]: 64 µg/mL
- MIC [3, 31]: 256 µg/mL
- MIC [3, 32]: 128 µg/mL
- MIC [3, 33]: 256 µg/mL
- MIC [3, 34]: 512 µg/mL
- MIC [3, 35]: 512 µg/mL
- MIC [3, 36]: 2 µg/mL
- MIC [3, 37]: 8 µg/mL
- MIC [3, 38]: 128 µg/mL
- MIC [3, 39]: 2 µg/mL
- MIC [3, 40]: 2 µg/mL
- MIC [3, 41]: 512 µg/mL
- MIC [3, 42]: 256 µg/mL
- MIC [3, 43]: 128 µg/mL
- MIC [3, 44]: 128 µg/mL
- MIC [3, 45]: 8 µg/mL
- MIC [3, 46]: 2 µg/mL
- MIC [3, 47]: 32 µg/mL
- MIC [3, 48]: 128 µg/mL
- MIC [3, 49]: 128 µg/mL
- MIC [3, 50]: 16 µg/mL
- MIC [3, 51]: 32 µg/mL
- MIC [3, 52]: 0.12 µg/mL

Compound: Cn1c(N)c(NC(=O)NCCN)c[n+]1CC1=C(C(=O)O)N2C(=O)[C@@H](NC(=O)/C(=N\OC(C)(C)C(=O)[O-])c3nsc(N)n3)[C@H]2SC1 [TOL]
- % Susceptible isolates ([1]; GES/KPC/VIM carbapenemase producing (n = 17)): 0%
- % Susceptible isolates ([1]; PDC variants (n = 10)): 0%
- % Susceptible isolates [1, 5]: 85.7%
- % Susceptible isolates ([2]; ESBL (n = 20)): 0%
- % Susceptible isolates ([2]; KPC (n = 20)): 0%
- % Susceptible isolates ([2]; MBL (n = 20)): 0%
- % Susceptible isolates ([2]; Mixed Class A and C (n = 22)): 0%
- % Susceptible isolates ([2]; OXA-48/48-like (n = 20)): 5%
- MIC (E. cloacae; [6]): 32 µg/mL
- MIC (E. cloacae; [7]): 32 µg/mL
- MIC (E. cloacae; [8]): 32 µg/mL
- MIC (E. cloacae; Enterobacter cloacae, strain 847426, KPC, read-out: MIC): ≥ 256 µg/mL
- MIC (E. cloacae; [9]): ≥ 256 µg/mL
- MIC (E. cloacae; [10]): 64 µg/mL
- MIC (E. cloacae; [11]): 32 µg/mL
- MIC (E. cloacae; [12]): ≥ 256 µg/mL
- MIC (E. cloacae; [13]): 32 µg/mL
- MIC (E. cloacae; [14]): 128 µg/mL
- MIC (E. cloacae; [15]): ≥ 256 µg/mL
- MIC (E. cloacae; [16]): ≥ 256 µg/mL
- MIC (E. cloacae; [17]): ≥ 256 µg/mL
- MIC (E. cloacae; Enterobacter cloacae, strain CDC-0053, KPC-3/TEM-1, read-out: MIC): 128 µg/mL
- MIC (E. cloacae; Enterobacter cloacae, strain CDC-0163, KPC/CTX-M-1/ACT/MIR, read-out: MIC): 128 µg/mL
